From ChEMBL document CHEMBL5260837, “Recent advances in small molecule based cancer immunotherapy” (Eur J Med Chem, 2018)
Each block holds one molecule with its values, some of them ahead of it.

Tests used:
[1] = molecular target: T1, Arginase-2, mitochondrial (Homo sapiens, UniProt P78540); experiment: Competitive inhibition of human ARG2
T1 sequence (P78540 whole entry): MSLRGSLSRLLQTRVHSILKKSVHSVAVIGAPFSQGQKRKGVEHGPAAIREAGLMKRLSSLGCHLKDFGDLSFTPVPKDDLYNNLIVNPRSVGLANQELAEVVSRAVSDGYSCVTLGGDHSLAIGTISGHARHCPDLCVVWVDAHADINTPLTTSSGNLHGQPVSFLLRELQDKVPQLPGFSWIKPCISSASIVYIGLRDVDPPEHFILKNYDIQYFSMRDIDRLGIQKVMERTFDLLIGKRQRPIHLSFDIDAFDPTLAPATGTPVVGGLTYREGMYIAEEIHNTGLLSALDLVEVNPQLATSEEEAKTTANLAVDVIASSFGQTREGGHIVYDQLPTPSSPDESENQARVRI

[2] = molecular target: Indoleamine 2,3-dioxygenase 1 (Homo sapiens, UniProt P14902); experiment: Inhibition of human IDO1
Sequence of Indoleamine 2,3-dioxygenase 1 (P14902 whole entry): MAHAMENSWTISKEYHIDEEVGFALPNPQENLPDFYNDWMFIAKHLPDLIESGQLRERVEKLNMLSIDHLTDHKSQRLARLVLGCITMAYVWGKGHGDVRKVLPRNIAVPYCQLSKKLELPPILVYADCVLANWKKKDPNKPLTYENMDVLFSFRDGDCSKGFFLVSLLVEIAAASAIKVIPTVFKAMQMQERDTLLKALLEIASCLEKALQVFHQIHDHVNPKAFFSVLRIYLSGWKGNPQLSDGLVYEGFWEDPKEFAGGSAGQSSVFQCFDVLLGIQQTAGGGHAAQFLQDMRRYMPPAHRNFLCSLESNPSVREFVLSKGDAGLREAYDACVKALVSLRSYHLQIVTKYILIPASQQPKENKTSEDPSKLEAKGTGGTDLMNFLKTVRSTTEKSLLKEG

[3] = system: Splenocyte; experiment: Antiproliferative activity in mouse splenocyte assessed as inhibition of cell proliferation incubated for 72 hrs by MTT assay; format: functional; set-up: scale not given: the % may be the effect or the level left
[4] = molecular target: Programmed cell death protein 1/Programmed cell death 1 ligand 1 (Homo sapiens, UniProt Q15116+Q9NZQ7); experiment: Inhibition of PD-1/PD-L1 interaction (unknown origin) incubated for 24 hrs by HTRF assay; format: protein-complex assay
Sequence of Programmed cell death protein 1/Programmed cell death 1 ligand 1 (Q15116 whole entry): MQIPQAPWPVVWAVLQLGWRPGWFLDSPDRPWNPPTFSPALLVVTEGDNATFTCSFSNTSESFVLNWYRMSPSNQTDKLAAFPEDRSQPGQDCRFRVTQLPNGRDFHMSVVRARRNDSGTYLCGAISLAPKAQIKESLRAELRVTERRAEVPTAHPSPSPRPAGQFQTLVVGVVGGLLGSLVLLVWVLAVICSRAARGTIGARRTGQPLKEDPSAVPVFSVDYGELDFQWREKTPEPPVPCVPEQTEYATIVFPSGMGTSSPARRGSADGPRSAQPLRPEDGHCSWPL
Sequence of Programmed cell death protein 1/Programmed cell death 1 ligand 1 (Q9NZQ7 whole entry): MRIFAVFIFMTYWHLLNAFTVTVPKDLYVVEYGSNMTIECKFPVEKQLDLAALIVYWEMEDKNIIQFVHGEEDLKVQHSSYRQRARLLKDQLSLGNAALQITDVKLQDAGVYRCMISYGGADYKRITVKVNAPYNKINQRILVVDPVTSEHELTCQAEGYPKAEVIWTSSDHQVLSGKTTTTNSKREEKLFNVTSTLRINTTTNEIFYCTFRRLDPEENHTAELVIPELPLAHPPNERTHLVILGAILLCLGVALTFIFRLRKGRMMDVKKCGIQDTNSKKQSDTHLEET

[5] = molecular target: T2, Ectonucleoside triphosphate diphosphohydrolase 1 (Homo sapiens, UniProt P49961); experiment: Inhibition of human NTPDase1
T2 sequence (P49961 whole entry): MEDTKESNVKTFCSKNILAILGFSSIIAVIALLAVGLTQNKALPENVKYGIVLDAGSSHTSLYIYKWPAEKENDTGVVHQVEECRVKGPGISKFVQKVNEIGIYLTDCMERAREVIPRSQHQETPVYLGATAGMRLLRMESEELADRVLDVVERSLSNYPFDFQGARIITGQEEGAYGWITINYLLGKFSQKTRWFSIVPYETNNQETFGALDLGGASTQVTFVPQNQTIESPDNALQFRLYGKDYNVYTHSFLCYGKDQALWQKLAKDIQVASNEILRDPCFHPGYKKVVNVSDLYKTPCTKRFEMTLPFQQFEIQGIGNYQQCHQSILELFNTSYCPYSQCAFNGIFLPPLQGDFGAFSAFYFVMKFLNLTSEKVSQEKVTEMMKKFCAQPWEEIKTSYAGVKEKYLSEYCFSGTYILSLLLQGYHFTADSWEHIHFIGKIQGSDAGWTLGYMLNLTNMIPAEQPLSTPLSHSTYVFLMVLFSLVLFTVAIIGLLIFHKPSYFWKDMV

[6] = molecular target: T3, Arginase-1 (Homo sapiens, UniProt P05089); experiment: Inhibition of human ARG1
T3 sequence (P05089 whole entry): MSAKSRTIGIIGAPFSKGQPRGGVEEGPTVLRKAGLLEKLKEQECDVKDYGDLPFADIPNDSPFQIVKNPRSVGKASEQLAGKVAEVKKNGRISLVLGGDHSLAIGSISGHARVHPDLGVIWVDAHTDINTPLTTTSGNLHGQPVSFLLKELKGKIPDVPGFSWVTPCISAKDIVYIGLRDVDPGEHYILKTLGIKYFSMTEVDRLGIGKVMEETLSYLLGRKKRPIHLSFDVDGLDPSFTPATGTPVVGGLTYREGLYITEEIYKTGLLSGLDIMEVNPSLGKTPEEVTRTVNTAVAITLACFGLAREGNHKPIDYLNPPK

[7] = molecular target: C-X-C chemokine receptor type 4 (Homo sapiens, UniProt P61073); experiment: Antagonist activity at CXCR4 receptor in human MIA PaCa-2 cells assessed as reduction in forskolin-stimulated inhibition of cAMP production; format: cell-based
Sequence of C-X-C chemokine receptor type 4 (P61073 whole entry): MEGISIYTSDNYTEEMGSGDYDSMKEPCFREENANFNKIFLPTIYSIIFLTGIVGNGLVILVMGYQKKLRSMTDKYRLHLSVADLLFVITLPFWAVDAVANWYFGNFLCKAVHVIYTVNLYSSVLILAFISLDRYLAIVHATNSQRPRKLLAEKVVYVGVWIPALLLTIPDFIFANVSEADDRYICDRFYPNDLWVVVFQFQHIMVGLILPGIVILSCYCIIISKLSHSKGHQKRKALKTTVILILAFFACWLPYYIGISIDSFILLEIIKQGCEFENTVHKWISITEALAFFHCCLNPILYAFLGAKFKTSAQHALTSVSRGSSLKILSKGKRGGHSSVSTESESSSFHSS

[8] = system: MIA PaCa-2; experiment: Antiproliferative activity against human MIA PaCa-2 cells
[9] = Half life in mouse at 2000 mg/kg; format: ADME, organism-based; settings: in vivo
[10] = molecular target: T4, Toll-like receptor 8 (Homo sapiens, UniProt Q9NR97); experiment: Agonist activity at human TLR8 expressed in HEK293 cells by reporter gene assay
T4 sequence (Q9NR97 whole entry): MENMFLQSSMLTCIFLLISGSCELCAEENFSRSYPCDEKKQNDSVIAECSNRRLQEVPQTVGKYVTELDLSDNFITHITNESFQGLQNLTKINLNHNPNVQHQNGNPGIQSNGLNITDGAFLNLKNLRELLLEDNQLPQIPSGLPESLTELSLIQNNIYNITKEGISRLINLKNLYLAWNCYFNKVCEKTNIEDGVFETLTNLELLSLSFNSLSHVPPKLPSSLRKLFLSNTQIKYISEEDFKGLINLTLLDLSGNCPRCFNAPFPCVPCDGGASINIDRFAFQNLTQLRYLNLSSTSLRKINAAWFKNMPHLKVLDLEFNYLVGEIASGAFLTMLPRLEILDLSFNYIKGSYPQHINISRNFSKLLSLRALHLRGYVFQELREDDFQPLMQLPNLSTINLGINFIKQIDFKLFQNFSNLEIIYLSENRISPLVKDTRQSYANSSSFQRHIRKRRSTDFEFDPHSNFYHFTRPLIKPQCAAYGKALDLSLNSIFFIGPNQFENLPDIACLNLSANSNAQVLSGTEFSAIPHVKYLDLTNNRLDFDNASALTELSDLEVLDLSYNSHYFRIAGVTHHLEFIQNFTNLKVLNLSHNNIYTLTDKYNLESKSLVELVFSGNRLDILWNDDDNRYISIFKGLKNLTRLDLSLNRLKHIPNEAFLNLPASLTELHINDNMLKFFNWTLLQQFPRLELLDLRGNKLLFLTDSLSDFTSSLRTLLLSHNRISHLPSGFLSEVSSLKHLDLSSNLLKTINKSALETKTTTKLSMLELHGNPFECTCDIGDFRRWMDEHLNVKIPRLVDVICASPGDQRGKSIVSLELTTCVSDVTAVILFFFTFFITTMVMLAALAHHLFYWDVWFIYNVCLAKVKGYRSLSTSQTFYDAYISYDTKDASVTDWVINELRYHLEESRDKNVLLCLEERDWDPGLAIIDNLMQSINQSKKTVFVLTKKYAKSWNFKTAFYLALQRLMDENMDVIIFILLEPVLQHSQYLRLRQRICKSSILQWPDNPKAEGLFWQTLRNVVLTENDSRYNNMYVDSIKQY

[11] = Half life in rat; format: ADME; settings: in vivo
[12] = Oral bioavailability in rat; format: ADME, organism-based; settings: in vivo

Ki [1]: 310 nM
Structure (SMILES): N[C@@H](CSCCB(O)O)C(=O)O

IC50 [2]: 110 nM
Structure (SMILES): C[C@@]12CCCCC1=C(O)C(=O)c1cc3c(cc12)C(=O)C1=C(C3=O)S(=O)(=O)CCN1

Structure (SMILES): NC(=O)C[C@H](N)c1nc([C@@H](N)CO)no1
Activity [3]: 48.4%

Structure (SMILES): Cc1c(Nc2cccc3cc(CNCCO)cnc23)cccc1-c1ccccc1
IC50 [4]: < 10 nM

IC50 [5]: 50 nM
Structure (SMILES): COc1cc(/C=N/c2nc(-c3cc4ccccc4oc3=O)cs2)cc(OC)c1OC

IC50 [6]: 740 nM
Structure (SMILES): CN[C@@H](CO)C(=O)N1C[C@H](CCCB(O)O)[C@](N)(C(=O)O)C1

EC50 [7]: 6500 nM | IC50 [8]: 3500 nM
Structure (SMILES): CCN(CC)CCCC(C)Nc1ccnc2cc(Cl)ccc12 (configuration not stated) [CHLOROQUINE]

half-life [9]: 10.5 h
Structure (SMILES): Cn1cc(C[C@@H](N)C(=O)O)c2ccccc21 [INDOXIMOD]

EC50 [10]: 100 nM
Structure (SMILES): CCCN(CCC)C(=O)C1=Cc2ccc(-c3ccc(C(=O)N4CCCC4)cc3)cc2N=C(N)C1 [MOTOLIMOD]

half-life [11]: 0.25 h | bioavailability [12]: 100%
Structure (SMILES): N=C(NO)NCC[C@H](N)C(=O)O [NOR-NOHA]
